ChEMBL document CHEMBL1145008, “Relationship between stereochemistry and the beta3-adrenoceptor agonistic activity of 4'-hydroxynorephedrine derivative as an agent for treatment of frequent urination and urinary incontinence” (J Med Chem, 2003)

Experiments:
[1] = target: Beta-1 adrenergic receptor (Rattus norvegicus) (UniProt P18090)
Description: Mean concentration required to increase basal rate of rat atria by 20 beats per minute

[2] = target: Beta-1 adrenergic receptor (Rattus norvegicus) (UniProt P18090); remark: listed apart in the source
Description: (§1) Agonistic activity for Beta-1 adrenergic receptor was estimated from it's chronotropic effect on rat atria

[3] = target: Beta-2 adrenergic receptor (Rattus norvegicus) (UniProt P10608); experiment: Agonistic activity for Beta-2 adrenergic receptor was assessed by it's inhibitory effect on spontaneous contractions in isolated rat uterus
Beta-2 adrenergic receptor (Rattus norvegicus), sequence (P10608 whole entry, looked up): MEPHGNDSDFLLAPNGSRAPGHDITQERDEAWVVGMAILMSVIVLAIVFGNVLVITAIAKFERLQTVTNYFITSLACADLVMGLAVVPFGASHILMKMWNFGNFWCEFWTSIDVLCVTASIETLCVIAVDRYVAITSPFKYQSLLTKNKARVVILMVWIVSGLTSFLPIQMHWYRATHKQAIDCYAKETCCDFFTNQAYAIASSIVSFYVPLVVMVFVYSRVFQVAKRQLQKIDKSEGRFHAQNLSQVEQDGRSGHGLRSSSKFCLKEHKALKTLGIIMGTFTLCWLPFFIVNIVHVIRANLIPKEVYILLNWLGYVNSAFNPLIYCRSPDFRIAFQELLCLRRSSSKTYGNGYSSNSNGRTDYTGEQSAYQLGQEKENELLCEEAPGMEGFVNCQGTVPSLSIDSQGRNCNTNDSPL

[4] = target: Beta-1 adrenergic receptor (Rattus norvegicus) (UniProt P18090); remark: listed apart in the source
Description: as §1

Beta-1 adrenergic receptor (Rattus norvegicus), sequence (P18090 whole entry, looked up): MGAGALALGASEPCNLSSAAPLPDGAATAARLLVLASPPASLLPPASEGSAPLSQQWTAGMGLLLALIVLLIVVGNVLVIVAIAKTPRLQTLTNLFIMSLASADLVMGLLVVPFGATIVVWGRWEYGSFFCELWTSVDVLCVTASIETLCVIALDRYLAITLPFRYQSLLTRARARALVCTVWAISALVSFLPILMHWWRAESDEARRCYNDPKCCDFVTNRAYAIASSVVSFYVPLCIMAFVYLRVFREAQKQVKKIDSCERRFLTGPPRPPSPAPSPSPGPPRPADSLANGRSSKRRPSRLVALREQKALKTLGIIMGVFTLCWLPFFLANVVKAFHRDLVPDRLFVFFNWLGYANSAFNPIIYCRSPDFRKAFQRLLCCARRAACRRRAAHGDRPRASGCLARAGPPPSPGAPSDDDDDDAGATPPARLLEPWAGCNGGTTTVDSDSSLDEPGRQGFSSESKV

SMILES	EC20 [1]	pEC20 [2]	IC50 [3]	pEC20 [4]
C[C@H](NCCc1ccc(OCC(=O)O)c(Cl)c1)[C@H](O)c1ccc(O)cc1	> 100 µM			
CCOC(=O)COc1ccc(CCNC(C)C(O)c2ccc(O)cc2)cc1Cl (stereo not given)	1.6 µM	5.8		
C[C@H](NCCc1ccc(OCC(=O)O)c(Cl)c1)[C@@H](O)c1ccc(O)cc1	55 µM	4.26		
C[C@H](Cc1ccc(OCC(=O)O)cc1)NC[C@H](O)c1cccc(Cl)c1 (relative stereo)			0.00912 µM	
C[C@@H](NCCc1ccc(OCC(=O)O)c(Cl)c1)[C@@H](O)c1ccc(O)cc1	14 µM			4.86
C[C@@H](NCCc1ccc(OCC(=O)O)c(Cl)c1)[C@H](O)c1ccc(O)cc1	21 µM	4.68		
